Experimental data reported in patent publication US4894374A, “Substituted 1,2-dihydro-4h-3,1-benzoxazin-4-one derivatives inhibitors of interleukin 1” (American Home Products Corporation, priority 1988, dated 1990).

Test system: IL 1-induced release of neutral protease from rabbit articular chondrocytes
Assay: inhibition of IL 1-induced release of neutral protease from rabbit articular chondrocytes
Assay type: cell-based, rabbit (New Zealand White)
Details: Oryctolagus cuniculus, Chondrocyte, human IL 1 stimulation, 24 h, compound added 10 min before IL 1, ± S.D., read-out: % Inhibition (of protease secretion)
Description: The ability of the compounds of the inventions to inhibit interleukin 1 is measured by the ability of the test compounds to inhibit the IL 1-induced release of neutral protease from rabbit articular chondrocytes.
Male New Zealand White rabbits are anesthetized with 50 mg/kg of ketamine (i.m.) and killed by an intracardiac injection of 3 mls. of Nembutal. The knee joints of both legs are resected and the articular surfaces are exposed. Cartilage slices are obtained using a scalpel and are placed in a tissue culture dish (100 mm diameter) containing 10 mls of Hank's balanced salt solution (HBSS). The chondrocytes within the cartilage slices are then liberated by a series of enzyme digestions. The slices are incubated for 10 min. at 37° C. in 0.05% hyaluronidase (Sigma H-3884), rinsed with HBSS and incubated with 0.2% trypsin (Sigma T-2395) for 10 min. at 37° C. The slices are rinsed again and incubated for 10 mins. at 37° C. with 1.2% collagenase (Sigma C-5138). The slices are then rinsed again with HBSS and resuspended in 10 ml of Ham's F-12 medium containing 10% fetal bovine calf serum (FCS) and 0.2 % collagenase and incubated overnight at 37° C. in a 5% CO2 incubator. The next day, the medium containing the digested cartilage fragments and liberated chondrocytes is transferred to a 15 ml centrifuge tube and the cells are collected by centrifugation and washed twice and resuspended in Ham's F-12 medium. The cells are then plated into 24-well tissue culture plates (2×10^5 cells/well) and incubated at 37° C. until confluent (usually 4-6 days).
The confluent chondrocytes are rinsed twice with serum-free Ham's F-12 medium and 1 ml is added to each well. Fifty μl of purified human IL 1 (100 Units/ml; Genzyme Corporation, Boston, MA) is then added to stimulate these cells to secrete neutral protease. To measure drug effects, the cells are treated with test compound 10 min. prior to addition of IL 1. The standard screening dose is 10 μM. Twenty-four hours after IL 1 stimulation, supernatant fluids are collected and assayed for neutral protease activity.
The neutral protease activity of chondrocyte supernatant fluids is determined by their ability to degrade an insoluble protease substrate, azocoll (Sigma). Supernatants are treated for 10 min. at room temperature with 350 μM p-aminophenylmercuric acetate to activate the latent enzyme. Three hundred μl of supernatant is then mixed with 500 μl of a 20 mg/ml suspension of azocoll and incubated at 37° C. for 18-24 hrs. with gentle rocking. The mixtures are centrifuged and the amount of substrate hydrolyzed is determined by measuring the absorbance of the supernatant at 520 nm.
Drug effects are calculated as the % change in enzyme activity (absorbance)by supernatants from drug-treated chondrocytes relative to enzyme activity of supernatants from vehicle-treated chondrocytes as follows: % Inhibition of Protease Secretion= [formula]

Structure (SMILES) | inhibition at 1 µM [%] | inhibition at 5 µM [%] | inhibition at 10 µM [%]
CS(=O)(=O)c1ccc(N2CCC3(CC2)Nc2cc(Cl)ccc2C(=O)O3)cc1 [Example 2, 7-Chloro-1'-[4-(methylsulfonyl)phenyl]spiro[2H-3,1-benzoxazine-2,4'-piperidin]-4(1H)-one] | 30 ± 31 | 48 ± 7 | 51 ± 32
N#Cc1ccc(N2CCC3(CC2)Nc2cc(Cl)ccc2C(=O)O3)cc1 [Example 1, 4-[7-Chloro-1,3-dihydro-4-oxospiro[2H-3,1-benzoxazine-2,4'-piperidin]-1-yl]benzonitrile] | 56 ± 22 | 55 ± 19 | 47 ± 34
